# Experimental data: US20220409598A1, “METHOD OF CONTROLLING BLOOD SUGAR LEVEL AND TREATMENT OF DIABETES AND RELATED CONDITIONS” (ILDONG PHARMACEUTICAL CO., LTD., priority 2021, published 2022)
# Read-outs that look alike come from different tables or passages of the source.
# Columns and labels:
# [1] = diabetics, metformin on its own; cited from earlier work
# [2] = Single ascending dose (SAD) study in healthy human, plasma PK; format: in vivo; conditions: for AUC(0-inf) / AUC(0-t) / Cmax: human, plasma, po; for AUC(0-inf): read-out: AUCinf, geometric mean; for AUC(0-t): read-out: AUClast, geometric mean; for Cmax: read-out: Cmax, geometric mean
# Method: (§1) To determine safety and pK data in human subjects, single ascending dose (SAD) study was conducted. SAD study included 5 cohorts of 8 healthy subjects who were randomized and received a single oral dose of Reference Example 1 compound or placebo (3:1) at 0.5 mg, 1 mg, 2 mg, 5 mg, or 10 mg. Each cohort was initiated after review of the safety and PK data of the previous cohort. 5 mg cohort was divided into two groups, wherein one group was administered with Reference Example 1 compound in fasted state and the other group was administered with Reference Example 1 compound together with food.
# Mean plasma concentration of Reference Example 1 compound following single dose of 0.5, 1, 2, 5, and 10 mg are shown in FIG. 4A (linear scale) and FIG. 4B (semi-logarithmic scale).
# FIG. 5A and FIG. 5B show mean plasma concentration of Reference Example 1 compound following single dose of 0.5 mg (fasted), 1 mg (fasted), 2 mg (fasted), 5 mg (fasted), and 5 mg (fed) in linear scale and semi-logarithmic scale, respectively.
# [3] = Single ascending dose (SAD) study in healthy human, safety; format: in vivo
# Method: as §1
# As expected from preclinical PK modelling, none of the single doses exceeded the PK stopping criteria for Cmax and AUClast.
# Of the 12 AEs, 5 were considered to be possibly related to IMP (Investigational Medicinal Product). The 5 AE included headaches (2), lower abdominal pain, diarrhea, and exanthema in the right upper arm, all of which were of mild intensity and recovered quickly.
# Overall, none of the AEs caused medical concern, and no stopping criteria per protocol were met.
# [4] = OGTT (Oral Glucose Tolerance Test) in SD rats; format: in vivo; conditions: 1 mg/kg
# Method: Additionally, the results of the exposure and efficacy of Reference Example 1 compound (at 0.1 mg/kg, 0.3 mg/kg, and 1 mg/kg doses) in SD rats are shown in FIG. 6.
# [5] = target: BSEP (bile salt export pump) (Homo sapiens, UniProt O95342); assay: Human transporter inhibition study, BSEP; format: biochemical
# Chain of BSEP (bile salt export pump) (O95342 whole entry): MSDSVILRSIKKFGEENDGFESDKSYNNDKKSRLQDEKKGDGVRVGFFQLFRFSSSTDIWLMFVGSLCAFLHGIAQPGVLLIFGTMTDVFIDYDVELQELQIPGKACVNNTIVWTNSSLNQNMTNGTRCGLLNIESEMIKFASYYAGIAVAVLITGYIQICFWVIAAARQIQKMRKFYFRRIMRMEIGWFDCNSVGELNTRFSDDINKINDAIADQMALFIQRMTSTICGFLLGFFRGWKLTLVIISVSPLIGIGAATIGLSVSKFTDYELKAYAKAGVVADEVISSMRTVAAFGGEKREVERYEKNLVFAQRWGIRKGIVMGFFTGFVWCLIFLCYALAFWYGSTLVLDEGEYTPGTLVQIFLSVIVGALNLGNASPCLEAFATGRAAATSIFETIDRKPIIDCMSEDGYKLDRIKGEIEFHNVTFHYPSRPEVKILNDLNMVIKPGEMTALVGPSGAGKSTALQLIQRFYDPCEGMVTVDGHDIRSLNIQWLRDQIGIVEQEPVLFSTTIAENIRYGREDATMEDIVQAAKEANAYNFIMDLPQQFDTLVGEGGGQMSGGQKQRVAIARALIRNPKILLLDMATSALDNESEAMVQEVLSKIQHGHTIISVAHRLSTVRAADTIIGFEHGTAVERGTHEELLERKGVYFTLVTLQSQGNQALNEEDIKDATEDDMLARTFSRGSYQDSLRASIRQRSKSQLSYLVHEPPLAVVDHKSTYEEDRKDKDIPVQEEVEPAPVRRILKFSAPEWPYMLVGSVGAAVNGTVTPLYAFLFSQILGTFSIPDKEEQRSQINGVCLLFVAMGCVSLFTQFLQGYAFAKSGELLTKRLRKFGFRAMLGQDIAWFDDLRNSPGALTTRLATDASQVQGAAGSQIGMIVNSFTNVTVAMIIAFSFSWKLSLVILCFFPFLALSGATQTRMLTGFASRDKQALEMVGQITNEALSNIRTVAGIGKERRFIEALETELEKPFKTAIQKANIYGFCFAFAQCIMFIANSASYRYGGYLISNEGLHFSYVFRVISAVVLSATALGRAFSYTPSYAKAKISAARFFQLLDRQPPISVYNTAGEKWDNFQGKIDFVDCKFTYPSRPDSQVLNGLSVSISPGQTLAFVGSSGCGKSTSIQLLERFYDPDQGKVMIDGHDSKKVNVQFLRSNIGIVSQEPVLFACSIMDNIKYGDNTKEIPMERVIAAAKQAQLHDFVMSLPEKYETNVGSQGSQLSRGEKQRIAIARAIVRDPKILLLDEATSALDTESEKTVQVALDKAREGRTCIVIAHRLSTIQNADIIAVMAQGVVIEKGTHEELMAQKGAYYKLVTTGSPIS
# From the text: DILI risk may be due to potency of BSEP inhibition in combination with in vivo drug exposure (e.g., Cmax or Css (plasma concentration at steady state)).
# (§2) • (a) Human Transporter Inhibition Study and Safety Margin
# MRP2 = MRP2 (Homo sapiens, UniProt Q92887); assay: Human transporter inhibition study, MRP2; format: biochemical; conditions: read-out: MRP2 in vitro inhibition IC50
# Chain of MRP2 (Q92887 whole entry): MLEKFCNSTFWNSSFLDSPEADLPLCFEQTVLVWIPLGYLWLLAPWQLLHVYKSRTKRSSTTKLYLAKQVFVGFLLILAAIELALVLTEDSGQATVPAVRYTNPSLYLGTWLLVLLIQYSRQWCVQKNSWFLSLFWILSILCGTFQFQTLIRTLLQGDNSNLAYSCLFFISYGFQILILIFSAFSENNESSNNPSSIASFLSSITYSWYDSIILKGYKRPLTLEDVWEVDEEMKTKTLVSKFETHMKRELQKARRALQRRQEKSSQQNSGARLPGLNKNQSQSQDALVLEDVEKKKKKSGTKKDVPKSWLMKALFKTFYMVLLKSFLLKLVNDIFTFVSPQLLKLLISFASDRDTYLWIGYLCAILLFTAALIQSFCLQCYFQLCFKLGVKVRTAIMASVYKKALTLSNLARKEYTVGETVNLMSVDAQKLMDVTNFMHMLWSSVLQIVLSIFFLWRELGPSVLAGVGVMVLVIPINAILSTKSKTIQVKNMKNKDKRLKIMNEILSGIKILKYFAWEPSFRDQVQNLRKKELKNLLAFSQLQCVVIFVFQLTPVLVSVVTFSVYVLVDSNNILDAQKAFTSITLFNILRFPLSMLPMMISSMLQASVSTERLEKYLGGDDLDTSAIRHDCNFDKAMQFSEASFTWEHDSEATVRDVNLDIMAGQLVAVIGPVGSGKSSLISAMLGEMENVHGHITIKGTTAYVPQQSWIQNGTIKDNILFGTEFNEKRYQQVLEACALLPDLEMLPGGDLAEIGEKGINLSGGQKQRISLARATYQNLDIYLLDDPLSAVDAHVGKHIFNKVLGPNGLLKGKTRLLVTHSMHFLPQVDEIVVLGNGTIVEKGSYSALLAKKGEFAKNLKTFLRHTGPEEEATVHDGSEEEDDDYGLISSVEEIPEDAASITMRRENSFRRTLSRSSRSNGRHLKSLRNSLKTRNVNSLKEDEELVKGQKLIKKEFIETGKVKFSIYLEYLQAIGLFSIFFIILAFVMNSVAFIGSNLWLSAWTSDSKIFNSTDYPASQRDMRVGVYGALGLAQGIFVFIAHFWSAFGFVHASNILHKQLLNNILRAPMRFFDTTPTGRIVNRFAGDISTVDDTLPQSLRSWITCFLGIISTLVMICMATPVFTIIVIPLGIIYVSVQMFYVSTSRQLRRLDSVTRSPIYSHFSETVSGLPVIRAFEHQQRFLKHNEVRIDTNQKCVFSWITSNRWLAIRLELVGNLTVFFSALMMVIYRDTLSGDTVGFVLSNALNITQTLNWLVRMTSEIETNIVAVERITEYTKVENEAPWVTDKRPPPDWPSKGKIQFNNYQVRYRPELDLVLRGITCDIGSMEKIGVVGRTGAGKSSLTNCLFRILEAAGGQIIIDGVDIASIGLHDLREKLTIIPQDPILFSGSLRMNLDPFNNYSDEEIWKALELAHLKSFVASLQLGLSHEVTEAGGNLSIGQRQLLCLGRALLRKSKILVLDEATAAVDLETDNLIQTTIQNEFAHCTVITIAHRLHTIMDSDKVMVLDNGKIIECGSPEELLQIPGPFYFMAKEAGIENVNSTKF
# From the text: as §2
# MRP3 = MRP3 (Homo sapiens, UniProt O15438); assay: Human transporter inhibition study, MRP3; format: biochemical
# Chain of MRP3 (O15438 whole entry): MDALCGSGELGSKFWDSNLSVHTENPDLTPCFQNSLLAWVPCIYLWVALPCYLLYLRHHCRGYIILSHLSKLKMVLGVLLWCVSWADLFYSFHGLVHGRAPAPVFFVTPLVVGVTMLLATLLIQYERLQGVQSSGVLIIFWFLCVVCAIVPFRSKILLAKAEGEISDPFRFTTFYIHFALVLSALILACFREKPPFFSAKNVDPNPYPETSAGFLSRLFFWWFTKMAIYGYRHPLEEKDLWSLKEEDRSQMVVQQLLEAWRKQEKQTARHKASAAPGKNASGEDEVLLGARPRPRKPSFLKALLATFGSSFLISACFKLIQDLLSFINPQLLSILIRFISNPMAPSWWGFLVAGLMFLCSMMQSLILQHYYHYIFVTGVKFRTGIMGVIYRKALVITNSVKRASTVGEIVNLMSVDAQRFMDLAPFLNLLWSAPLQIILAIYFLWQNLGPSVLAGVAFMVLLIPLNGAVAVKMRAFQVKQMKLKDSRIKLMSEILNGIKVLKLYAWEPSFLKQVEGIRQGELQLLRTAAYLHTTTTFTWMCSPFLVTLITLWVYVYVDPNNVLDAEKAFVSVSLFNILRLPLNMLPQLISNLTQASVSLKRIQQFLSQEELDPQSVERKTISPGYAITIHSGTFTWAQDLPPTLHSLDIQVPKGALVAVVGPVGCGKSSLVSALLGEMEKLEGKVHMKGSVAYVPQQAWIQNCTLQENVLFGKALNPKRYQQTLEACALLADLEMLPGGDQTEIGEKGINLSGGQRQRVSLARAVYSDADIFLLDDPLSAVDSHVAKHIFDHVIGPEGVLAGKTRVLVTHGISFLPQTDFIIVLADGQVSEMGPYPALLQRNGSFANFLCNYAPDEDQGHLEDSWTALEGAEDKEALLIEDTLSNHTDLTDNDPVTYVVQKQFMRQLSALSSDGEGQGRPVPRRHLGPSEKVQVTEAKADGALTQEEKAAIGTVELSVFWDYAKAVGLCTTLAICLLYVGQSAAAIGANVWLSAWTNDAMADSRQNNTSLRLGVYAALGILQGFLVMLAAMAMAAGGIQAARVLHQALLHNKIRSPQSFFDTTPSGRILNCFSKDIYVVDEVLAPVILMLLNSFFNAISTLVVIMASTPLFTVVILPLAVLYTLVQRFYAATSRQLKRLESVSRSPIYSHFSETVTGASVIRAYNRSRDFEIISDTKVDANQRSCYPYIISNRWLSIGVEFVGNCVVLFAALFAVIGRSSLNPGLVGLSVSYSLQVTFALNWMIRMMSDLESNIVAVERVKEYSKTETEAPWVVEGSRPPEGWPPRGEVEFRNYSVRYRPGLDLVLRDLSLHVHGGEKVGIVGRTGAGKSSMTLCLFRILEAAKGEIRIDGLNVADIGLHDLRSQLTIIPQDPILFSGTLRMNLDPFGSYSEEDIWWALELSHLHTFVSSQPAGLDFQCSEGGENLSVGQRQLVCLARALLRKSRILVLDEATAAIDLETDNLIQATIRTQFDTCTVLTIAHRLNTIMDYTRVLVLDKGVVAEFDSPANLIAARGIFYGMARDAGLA
# From the text: as §2
# MRP4 = target: T1, MRP4 (Homo sapiens, UniProt O15439); assay: Human transporter inhibition study, MRP4; format: biochemical; conditions: read-out: MRP4 in vitro inhibition IC50
# T1 sequence (O15439 1-1325): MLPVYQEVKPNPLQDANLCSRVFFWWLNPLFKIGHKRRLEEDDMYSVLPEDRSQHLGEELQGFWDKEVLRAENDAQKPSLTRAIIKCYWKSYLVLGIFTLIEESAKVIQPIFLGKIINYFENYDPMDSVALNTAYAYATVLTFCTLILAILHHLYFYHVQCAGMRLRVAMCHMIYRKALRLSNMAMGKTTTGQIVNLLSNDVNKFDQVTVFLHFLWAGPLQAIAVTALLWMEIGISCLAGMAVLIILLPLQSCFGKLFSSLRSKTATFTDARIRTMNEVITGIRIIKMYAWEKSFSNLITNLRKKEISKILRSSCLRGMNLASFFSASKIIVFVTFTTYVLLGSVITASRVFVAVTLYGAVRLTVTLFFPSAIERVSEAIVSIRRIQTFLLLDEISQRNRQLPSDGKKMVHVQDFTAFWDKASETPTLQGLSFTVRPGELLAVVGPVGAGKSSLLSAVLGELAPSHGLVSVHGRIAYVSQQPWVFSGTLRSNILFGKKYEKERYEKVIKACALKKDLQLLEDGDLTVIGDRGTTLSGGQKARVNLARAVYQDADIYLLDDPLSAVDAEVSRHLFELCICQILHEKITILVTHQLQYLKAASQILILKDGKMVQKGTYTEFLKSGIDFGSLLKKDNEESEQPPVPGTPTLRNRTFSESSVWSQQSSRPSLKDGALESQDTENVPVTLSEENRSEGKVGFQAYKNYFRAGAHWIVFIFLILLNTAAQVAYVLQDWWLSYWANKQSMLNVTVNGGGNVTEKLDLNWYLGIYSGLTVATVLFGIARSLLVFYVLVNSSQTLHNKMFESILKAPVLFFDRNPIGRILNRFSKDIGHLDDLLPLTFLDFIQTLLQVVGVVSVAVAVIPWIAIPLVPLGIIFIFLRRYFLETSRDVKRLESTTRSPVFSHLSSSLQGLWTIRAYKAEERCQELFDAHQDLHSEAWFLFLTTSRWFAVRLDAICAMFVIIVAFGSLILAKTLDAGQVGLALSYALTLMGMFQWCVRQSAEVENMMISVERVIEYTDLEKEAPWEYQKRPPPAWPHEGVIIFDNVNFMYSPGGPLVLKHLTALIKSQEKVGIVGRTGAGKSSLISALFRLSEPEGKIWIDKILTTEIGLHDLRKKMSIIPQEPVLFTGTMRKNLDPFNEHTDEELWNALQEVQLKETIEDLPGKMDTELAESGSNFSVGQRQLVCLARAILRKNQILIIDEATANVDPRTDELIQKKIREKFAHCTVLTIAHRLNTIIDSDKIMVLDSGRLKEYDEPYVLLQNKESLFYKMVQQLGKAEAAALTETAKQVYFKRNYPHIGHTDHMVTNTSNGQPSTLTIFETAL
# From the text: as §2
# [6] = system: glycocholic acid (GCA) accumulation; assay: Bile acid analysis, glycocholic acid (GCA) accumulation; format: cell-based
# From the text: Glycocholic acid (GCA) and glycochenodeoxycholic acid (GCDCA) are major components of human bile acids and their significant increase has been confirmed in DILI patients.
# HepaRG cell = assay: Mitochondrial function inhibition in HepaRG cell; format: cell-based
# human hepatocytes [7] = assay: Covalent protein binding in human hepatocytes; format: in vitro ADME
# Method: The covalent binding (CVB) burden was estimated by determining the CVB of radiolabeled compound to human hepatocytes and factoring in both the daily dose and the fraction of metabolism leading to CVB. […] Reference Example 1 compound's dose over 260 mg a day was predicted to exceed the CVB burden threshold of 1 mg/day.
# [8] = HμRELTox assay, hepatotoxic response; format: cell-based; conditions: read-out: TC50 (the source's name)
# FXR = assay: Transcription factor profiling in 2D HepG2 cell, FXR; format: cell-based; conditions: 10 μM for 48 hours
# [9] = system: hepatic transcription factors; assay: Transcription factor profiling in 2D HepG2 cell, various hepatic transcription factors; format: cell-based; conditions: 2D HepG2 cell, 0.3, 3.3, 10 μM; compared to fasiglifam
# PPAR = assay: Transcription factor profiling in 2D HepG2 cell, PPAR; format: cell-based; conditions: 10 μM for 24 hours
# AP-1 = assay: Transcription factor profiling in 2D HepG2 cell, AP-1; format: cell-based; conditions: 10 μM for 24 hours
# NRF2 = assay: Transcription factor profiling in 2D HepG2 cell, NRF2; format: cell-based; conditions: 10 μM for 24 hours
# [10] = cited from earlier work; for Cmax: fasiglifam, Clin. Pharmacol. Ther. 92, 29-39, read-out: Human Cmax (maximum plasma concentration at steady state); for Cpss, max: human
# human hepatocytes [11] = conditions: Otieno et al. 2018, cited from earlier work
# [12] = 0.5 mg, single oral dose 0.5 mg
# [13] = 5 mg, single oral dose 5 mg fasted
# [14] = 5 mg, single oral dose 5 mg fed
# [15] = in vitro inhibition, read-out: BSEP IC50
# [16] = human hepatocytes, compound alone
structure (smiles),measurement,setting,value
CN(C)C(=N)N=C(N)N [metformin],Average improvement in the HbA1c value,[1],1.0-1.5%
"CC#C[C@@H](CC(=O)O)c1ccc(O[C@@H]2CCc3c(-c4ccc(O[C@@H]5CCOC5)nc4)ccc(F)c32)cc1 [Reference Example 1, (S)-3-(4-(((R)-7-Fluoro-4-(6-(((R)-tetrahydrofuran-3-yl)oxy)pyridin-3-yl)-2,3-dihydro-1H-inden-1-yl)oxy)phenyl)hex-4-ynoic acid]",AUC(0-inf),[2]; [12],811 ng·h/mL
same,AUC(0-t),[2]; [12],680 ng·h/mL
same,Cmax,[2]; [12],28.4 ng/mL
same,AUC(0-inf),"[2]; 1 mg, single oral dose 1 mg",1660 ng·h/mL
same,AUC(0-t),"[2]; 1 mg, single oral dose 1 mg",1370 ng·h/mL
same,Cmax,"[2]; 1 mg, single oral dose 1 mg",55.8 ng/mL
same,AUC(0-inf),"[2]; 2 mg, single oral dose 2 mg",2980 ng·h/mL
same,AUC(0-t),"[2]; 2 mg, single oral dose 2 mg",2480 ng·h/mL
same,Cmax,"[2]; 2 mg, single oral dose 2 mg",109 ng/mL
same,AUC(0-inf),[2]; [13],7740 ng·h/mL
same,AUC(0-t),[2]; [13],6520 ng·h/mL
same,Cmax,[2]; [13],243 ng/mL
same,AUC(0-inf),[2]; [14],8270 ng·h/mL
same,AUC(0-t),[2]; [14],6930 ng·h/mL
same,Cmax,[2]; [14],250 ng/mL
same,AUC(0-inf),"[2]; 10 mg, single oral dose 10 mg",18600 ng·h/mL
same,AUC(0-t),"[2]; 10 mg, single oral dose 10 mg",14800 ng·h/mL
same,Cmax,"[2]; 10 mg, single oral dose 10 mg",545 ng/mL
same,Fed/fasted % ratio for AUClast,[2]; single dose 5 mg,106.28%
same,Fed/fasted % ratio for Cmax,[2]; single dose 5 mg,103.19%
same,"Changes in ECG, vital signs, and lab data",[3]; SAD study,no significant changes
same,Adverse events of special interest / serious adverse events,[3]; SAD study 0.5-10 mg,no adverse event of special interest (AESI) or serious adverse event (SAE) was reported
same,Number of AEs considered possibly related to IMP,"[3]; SAD study, all mild intensity",5
same,Number of adverse events (AE) reported,"[3]; SAD study, compound or placebo",12
same,Tolerability of single doses,[3]; single oral doses 0.5 mg to 10 mg,safe and well tolerated
same,Reduction in glucose AUC in OGTT,[4],approximately 20.8%
same,IC50,[5]; [15],14.3 µM
same,IC50,[5]; read-out: BSEP (bile salt export pump) IC50,14.3 µM
same,IC50,MRP2,39.9 µM
same,MRP3 in vitro inhibition IC50,MRP3,No inhibition
same,IC50,MRP4,4.4 µM
same,Accumulation of glycocholic acid (GCA),[6]; at 1 μM,does not show significant accumulation
same,Inhibitory effect on mitochondrial function (DILI risk),HepaRG cell,lower DILI risk than fasiglifam
same,Dose predicted to exceed the CVB burden threshold of 1 mg/day,human hepatocytes [7],over 260 mg a day
same,CVB Burden,human hepatocytes [7]; daily dose 2 mg (human efficacious dose from PK/PD modeling),0.01 mg/day
same,"Covalent binding (CVB), +Aminobenzotriazole (CYP inhibitor)",human hepatocytes [7]; human hepatocytes,29.5 pmol/mg protein
same,"Covalent binding (CVB), +Borneol (UGT inhibitor)",human hepatocytes [7]; human hepatocytes,21.2 pmol/mg protein
same,"Covalent binding (CVB), compound",human hepatocytes [7]; [16],37.6 pmol/mg protein
same,CC50,[8],52.7 µM
same,Increase of FXR activity,FXR,1.58 fold
same,Effect on various transcription factor (TF) activities,[9],insignificant
Cc1cc(OCCCS(C)(=O)=O)cc(C)c1-c1cccc(COc2ccc3c(c2)OC[C@H]3CC(=O)O)c1 [fasiglifam],IC50,[5]; [15],19.6 µM
same,IC50,MRP2,24.8 µM
same,IC50,MRP3; read-out: MRP3 in vitro inhibition IC50,14.2 µM
same,IC50,MRP4,11.1 µM
same,Accumulation of glycocholic acid (GCA),[6]; at 4 μM,significant accumulation
same,CC50,[8],88.4 µM
same,Activity of PPAR,PPAR,significantly increased
same,Activity of AP-1,AP-1,significantly increased
same,Activity of NRF2,NRF2,significantly increased
same,Cmax,[10]; listed as Fasiglifam,10 µM
same,Cmax,[10],10.1 µM
same,"Cpss, max",[10]; dose 25 mg,4.38 µM
same,"Cpss, max",[10]; dose 50 mg,10.10 µM
same,CVB Burden,human hepatocytes [11]; daily dose 50 mg,2 mg/day
same,"Covalent binding (CVB), compound",human hepatocytes [11]; [16],69.1 pmol/mg protein
same,"Covalent binding (CVB), +Aminobenzotriazole (CYP inhibitor)",human hepatocytes [11]; human hepatocytes,73.7 pmol/mg protein
same,"Covalent binding (CVB), +Borneol (UGT inhibitor)",human hepatocytes [11]; human hepatocytes,44.4 pmol/mg protein
